Tests used:
JAK3 = JAK3 (Homo sapiens (Human), UniProt P52333); test: Mass spectrometry for Janus-3 kinase (JAK3); type: binding; conditions: 3 hrs at 10x excess, tryptic digest
Method: JAK3 kinase (33 pmols; Invitrogen) was incubated with (I-7) (327 pmols) for 3 hrs at 10× excess prior to tryptic digestion. Iodoacetamide was used as the alkylating agent after compound incubation. For tryptic digests a 5 ul aliquot (5.5 pmols) was diluted with 15 ul of 0.1% TFA prior to micro C18 Zip Tipping directly onto the MALDI target using alpha cyano-4-hydroxy cinnamic acid as the matrix (5 mg/ml in 0.1% TFA:Acetonitrile 50:50).
As depicted in FIG. 11, the expected peptide ([…]) to be modified was immediately evident as the largest peak at MH+ of 1725.88. This is the mass to be expected when compound I-7, with an adduct mass of 345.16, is added to the peptide mass of 1380.70. […] There was also evidence for a number of other modified peptides, however, their signals were low.
To further verify the presence of the modified peptides with compound I-7, the peptides at MH+ of 1725.88 and 1118.55 were subjected to PSD (MS/MS) analysis. A correlational analysis with the homo sapien database identified the correct peptides as being modified by I-7.
For tryptic digests the instrument was set in Reflectron mode with a pulsed extraction setting of 2200. Calibration was done using the Laser Biolabs Pep Mix standard ([…], 1296.69, 1672.92, 2093.09, 2465.20). […]

BTK = BTK (Homo sapiens (Human), UniProt Q06187); test: BTK occupancy from in vitro samples by ELISA (Ramos cells); type: cell-based
Chain of BTK (Q06187 whole entry): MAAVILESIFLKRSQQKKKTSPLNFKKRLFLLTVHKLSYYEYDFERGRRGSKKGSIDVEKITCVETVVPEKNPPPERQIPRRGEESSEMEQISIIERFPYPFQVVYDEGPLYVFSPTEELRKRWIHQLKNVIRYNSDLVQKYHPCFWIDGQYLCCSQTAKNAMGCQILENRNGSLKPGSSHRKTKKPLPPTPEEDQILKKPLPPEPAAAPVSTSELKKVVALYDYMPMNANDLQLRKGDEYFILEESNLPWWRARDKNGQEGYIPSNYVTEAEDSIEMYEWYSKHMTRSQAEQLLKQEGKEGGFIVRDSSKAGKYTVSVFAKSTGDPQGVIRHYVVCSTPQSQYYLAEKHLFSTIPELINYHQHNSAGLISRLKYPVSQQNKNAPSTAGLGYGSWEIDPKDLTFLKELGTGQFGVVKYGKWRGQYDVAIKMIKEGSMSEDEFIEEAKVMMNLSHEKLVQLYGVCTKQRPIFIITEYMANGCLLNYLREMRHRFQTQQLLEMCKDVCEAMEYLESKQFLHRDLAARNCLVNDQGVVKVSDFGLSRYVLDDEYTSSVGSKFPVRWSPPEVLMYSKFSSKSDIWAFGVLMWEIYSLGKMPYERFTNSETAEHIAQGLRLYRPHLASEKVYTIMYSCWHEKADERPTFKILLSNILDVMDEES
Method: In order to determine the amount of free BTK in cell or tissue lysates, an ELISA protocol was employed that utilizes a biotinylated probe compound that binds only to free, unoccupied BTK. The conjugated biotin is captured on a streptavidin-coated ELISA plate and detected with a mouse anti-BTK antibody (Becton Dickinson, Franklin Lakes, N.J., USA) and a secondary goat anti-mouse HRP antibody (Zymed, South San Francisco, Calif., USA).
All samples were prepared with equal concentrations of Biorad lysis buffer (Hercules, Calif., USA), 0.5% bovine serum albumin in PBS with 0.05% Tween-20 to give a final concentration of 1 μM I-215. Samples were incubated in a mixing plate for 1 hr at room temperature while shaking to allow probe compound I-215 to bind to free BTK. After incubation with I-215, samples were added to a washed, streptavidin-coated ELISA plate (Pierce, Rockford, Ill., USA) and incubated for 1 hr at room temperature while shaking. The plate was then washed with PBS containing 0.05% Tween-20 using an automatic plate washer. Anti-BTK antibody was prepared at 1:1000 dilution in 0.5% BSA in PBS (0.05% Tween-20) and added to the ELISA plate. The plate was incubated for 1 hr at room temperature while shaking. The plate was washed as described above and the secondary HRP antibody was prepared at 1:5000 dilution in 0.5% BSA in PBS (0.05% Tween-20). The plate was incubated and washed as described above. TMB was added to the plate, and OD650 was monitored until reaching 1 OD unit. The reaction was then stopped with addition of H2SO4. The plate was analyzed using Gen 5 software, and a 4 Parameter Logistic curve was employed to quantitate samples. Recombinant BTK (Invitrogen, Carlsbad, Calif., USA) was used for the standard curve.
A concentration designated as “A” is greater than 1 nM; a concentration designated as “B” is greater than 10 nM; and a concentration designated as “C” is greater than 50 nM.

Erbb4 kinase domain = Erbb4 kinase domain (Homo sapiens (Human), UniProt Q15303); test: Mass spectrometry for ERBB4; type: binding; conditions: 60 minutes at 10-fold excess of compound
Chain of Erbb4 kinase domain (Q15303 718-985): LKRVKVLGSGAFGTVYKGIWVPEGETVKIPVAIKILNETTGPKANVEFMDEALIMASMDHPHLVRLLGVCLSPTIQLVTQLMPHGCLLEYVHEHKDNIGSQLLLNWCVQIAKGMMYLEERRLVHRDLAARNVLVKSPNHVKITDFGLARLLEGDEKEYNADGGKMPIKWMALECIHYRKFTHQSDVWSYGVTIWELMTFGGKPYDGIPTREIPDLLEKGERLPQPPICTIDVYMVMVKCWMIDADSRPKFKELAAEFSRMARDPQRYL
Method: Erbb4 kinase domain (Upstate) was incubated with compound for 60 minutes at 10-fold excess of compound I-4 and I-11 to protein. 1 μl aliquots of the samples (total volume of 4.24 ul) were diluted with 10 μl of 0.1% TFA prior to micro C4 ZipTipping directly onto the MALDI target using Sinapinic acid as the desorption matrix (10 mg/ml in 0.1% TFA:Acetonitrile 50:50). For intact protein mass measurement the instrument was set in Linear mode using a pulsed extraction setting of 16,952 for the myoglobin standard used to calibrate the instrument (Shimadzu Axima TOF^2).
Intact ErbB4 protein occurs at MH+ of 35850 with corresponding sinapinic (matrix) adducts occurring about 200 Da higher. A stoichiometric incorporation of the test compound (I-4 and I-11) (Mw of 410 Da) produced a new mass peak which is approximately 410 Da higher (MH+ of 36260).

Chain of JAK3 (P52333 whole entry): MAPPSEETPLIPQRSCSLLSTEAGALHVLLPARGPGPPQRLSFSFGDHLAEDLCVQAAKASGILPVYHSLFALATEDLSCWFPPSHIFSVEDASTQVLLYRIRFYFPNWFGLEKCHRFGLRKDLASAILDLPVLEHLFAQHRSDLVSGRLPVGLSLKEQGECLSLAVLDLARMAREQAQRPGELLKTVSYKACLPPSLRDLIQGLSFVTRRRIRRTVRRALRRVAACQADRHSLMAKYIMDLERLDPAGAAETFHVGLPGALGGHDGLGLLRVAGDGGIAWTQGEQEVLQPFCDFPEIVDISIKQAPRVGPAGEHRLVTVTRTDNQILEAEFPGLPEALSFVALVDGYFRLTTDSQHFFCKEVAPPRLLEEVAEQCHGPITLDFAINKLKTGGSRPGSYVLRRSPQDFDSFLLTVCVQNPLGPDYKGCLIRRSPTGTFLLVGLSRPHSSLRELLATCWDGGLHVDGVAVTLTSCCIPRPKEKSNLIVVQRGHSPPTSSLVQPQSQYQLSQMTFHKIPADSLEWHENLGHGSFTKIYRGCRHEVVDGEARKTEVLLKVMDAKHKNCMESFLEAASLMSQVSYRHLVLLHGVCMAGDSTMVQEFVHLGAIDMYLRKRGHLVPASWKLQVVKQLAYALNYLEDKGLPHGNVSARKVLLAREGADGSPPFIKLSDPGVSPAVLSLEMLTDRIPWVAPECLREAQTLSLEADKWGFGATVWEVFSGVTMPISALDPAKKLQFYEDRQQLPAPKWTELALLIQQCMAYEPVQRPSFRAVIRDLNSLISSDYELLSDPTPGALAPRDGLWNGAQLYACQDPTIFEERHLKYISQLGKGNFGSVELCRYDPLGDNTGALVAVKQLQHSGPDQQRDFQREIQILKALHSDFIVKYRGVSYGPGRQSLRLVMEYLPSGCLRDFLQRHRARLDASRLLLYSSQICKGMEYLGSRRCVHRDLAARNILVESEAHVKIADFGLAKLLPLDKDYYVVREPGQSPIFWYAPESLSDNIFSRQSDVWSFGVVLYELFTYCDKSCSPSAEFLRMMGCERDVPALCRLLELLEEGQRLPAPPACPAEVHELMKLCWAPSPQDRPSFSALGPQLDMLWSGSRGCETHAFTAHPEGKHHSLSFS

| covalent modification of JAK3 peptide LVMEYLPSGCLR (Cys909) by mass spectrometry (JAK3) | >50% occupancy (concentration at which >50% of BTK is occupied) (BTK) | >90% occupancy (concentration at which >90% of BTK is occupied) (BTK) | covalent modification of ErbB4 by mass spectrometry (Erbb4 kinase domain) | Compound |
| --- | --- | --- | --- | --- |
| not entirely complete | A (greater than 1 nM) | B (greater than 10 nM) | – | C=CC(=O)Nc1cccc(Nc2nc(Nc3ccccc3)ncc2C)c1 [Compound I-7, N-(3-(5-methyl-2-(phenylamino)pyrimidin-4-ylamino)phenyl)acrylamide] |
| – | – | – | covalent modification | Cc1cccc(Nc2nc(Nc3cccc(NC(=O)/C=C/CN(C)C)c3)ncc2F)c1 [Compound I-4, (E)-4-(dimethylamino)-N-(3-(5-fluoro-4-(m-tolylamino)pyrimidin-2-ylamino)phenyl)but-2-enamide] |
